From patent US20250019445A1, “P-SELECTIN INHIBITION FOR TREATMENT OF CANCER” (Ramot at Tel-Aviv University Ltd., priority 2022, published 2025)

What was measured:
[1] = test system: P-selectin-, E-selectin-, and L-selectin-dependent adhesion; details: in humans in vitro; cited from earlier work
[2] = different animal models; wording wraps from r29 ("anti-") to r30; cited from earlier work
[3] = test system: A549 spheroids; assay: Lung cancer spheroid growth and invasion; format: cell-based, human
[4] = test system: Human MDA-BM-231 3D spheroids; assay: Breast cancer 3D spheroid invasion; format: cell-based; details: co-cultured with brain microenvironment cells; FIG. 7B
[5] = patients, administered systemically; cited from earlier work

O=C(O)Cc1cccc(-c2cc(CCCCCCc3ccc(O[C@H]4O[C@H](CO)[C@@H](O)[C@H](O)[C@@H]4O)c(-c4cccc(CC(=O)O)c4)c3)ccc2O[C@H]2O[C@H](CO)[C@@H](O)[C@H](O)[C@@H]2O)c1 [Bimosiamose]
inhibition of selectin-dependent adhesion [1]: been shown to inhibit P-selectin-, E-selectin-, and L-selectin- | anti-inflammatory effects [2]: inflammatory effects in different animal models.

COc1ccc(C2CC(c3c(O)cc(C)oc3=O)=NCCS2)c(OC)c1 (stereo not shown) [SELPi, 3-[7-(2,4-Dimethoxyphenyl)-2,3,6,7-tetrahydro-1,4-thiazepin-5-yl]-4-hydroxy-6-methyl-2H-pyran-2-one]
spheroid growth and invasion in Matrigel ([3]; FIG. 8D): reduced A549 spheroid growth and invasion in Matrigel, in a dose-dependent manner | spheroid growth ([3]; in the presence of human microglia, FIG. 8C): inhibits A549 spheroid growth | spheroid invasion [4]: reduced invasion

inclacumab: monoclonal antibody directed towards P-selectin
tolerability [5]: well tolerated

B1: crizanlizumab: Humanized monoclonal anti-P-selectin antibody. (antibody, chains of the INN, looked up, V domains shown)
VH: QVQLVQSGAEVKKPGASVKVSCKVSGYTFTSYDINWVRQAPGKGLEWMGWIYPGDGSIKYNEKFKGRVTMTVDKSTDTAYMELSSLRSEDTAVYYCARRGEYGNYEGAMDYWGQGTLVTVSS
VL: DIQMTQSPSSLSASVGDRVTITCKASQSVDYDGHSYMNWYQQKPGKAPKLLIYAASNLESGVPSRFSGSGSGTDFTLTISSLQPEDFATYYCQQSDENPLTFGGGTKVEIK
tolerability [5]: well tolerated
